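Briefly, cells in 96-well plates were exposed to five compound concentrations for 48 h, and endpoints were estimated by linear interpolation. At the GI50, growth is halved.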 Calls of active or inactive are those of the source. No stated cut-off is given here; in the data, active = GI50 up to about 1.1 µM and inactive = higher.
Key:
Assay in all cases: NCI anticancer screen, dose series, 48 h
786-0 = system: 786-0
A498 = system: A498
A549 = system: A549
ACHN = system: ACHN
CAKI-1 = system: CAKI-1
CCRF-CEM = system: CCRF-CEM
COLO 205 = system: COLO 205
DLD-1 = system: DLD-1
DMS-114 = system: DMS-114
EKVX = system: EKVX
HCC 2998 = system: HCC 2998
HCT-116 = system: HCT-116
HCT-15 = system: HCT-15
HOP-18 = system: HOP-18
HOP-62 = system: HOP-62
HOP-92 = system: HOP-92
HT-29 = system: HT-29
IGROV-1 = system: IGROV-1
K562 = system: K562
KM-20L2 = system: KM-20L2
KM12 = system: KM12
LOX IMVI = system: LOX IMVI
LXFL 529 = system: LXFL 529
M14 = system: M14
M19-MEL = system: M19-MEL
MOLT-4 = system: MOLT-4
Malme-3M = system: Malme-3M
NCI-H226 = system: NCI-H226
NCI-H23 = system: NCI-H23
NCI-H460 = system: NCI-H460
NCI-H522 = system: NCI-H522
OVCAR-3 = system: OVCAR-3
OVCAR-4 = system: OVCAR-4
OVCAR-5 = system: OVCAR-5
OVCAR-8 = system: OVCAR-8
RPMI-8226 = system: RPMI-8226
RXF 393 = system: RXF 393
SF-268 = system: SF-268
SF-295 = system: SF-295
SF-539 = system: SF-539
SK-MEL-28 = system: SK-MEL-28
SK-MEL-5 = system: SK-MEL-5
SK-OV-3 = system: SK-OV-3
SN12C = system: SN12C
SNB-19 = system: SNB-19
SNB-75 = system: SNB-75
SNB-78 = system: SNB-78
SR = system: SR
SW-620 = system: SW-620
TK-10 = system: TK-10
U-251 = system: U-251
UACC-257 = system: UACC-257
UACC-62 = system: UACC-62
UO-31 = system: UO-31
XF498 = system: XF498
DMS-273 = system: DMS-273
HL-60 = system: HL-60
RXF 631 = system: RXF 631
SK-MEL-2 = system: SK-MEL-2

C#CCN(N=O)C(=O)NCCCCC(NC(C)=O)C(=O)NCc1ccccc1 (configuration not stated)
GI50 (786-0): > 100 µM (inactive)
GI50 (A498): > 100 µM (inactive)
GI50 (A549): > 100 µM (inactive)
GI50 (ACHN): > 100 µM (inactive)
GI50 (CAKI-1): > 100 µM (inactive)
GI50 (CCRF-CEM): 28.4 µM (inactive)
GI50 (COLO 205): > 100 µM (inactive)
GI50 (DLD-1): > 100 µM (inactive)
GI50 (DMS-114): > 100 µM (inactive)
GI50 (EKVX): > 100 µM (inactive)
GI50 (HCC 2998): > 100 µM (inactive)
GI50 (HCT-116): > 100 µM (inactive)
GI50 (HCT-15): > 100 µM
GI50 (HOP-18): > 100 µM (inactive)
GI50 (HOP-62): > 100 µM (inactive)
GI50 (HOP-92): > 100 µM (inactive)
GI50 (HT-29): > 100 µM (inactive)
GI50 (IGROV-1): > 100 µM (inactive)
GI50 (K562): 54.1 µM (inactive)
GI50 (KM-20L2): > 100 µM (inactive)
GI50 (KM12): > 100 µM (inactive)
GI50 (LOX IMVI): > 100 µM (inactive)
GI50 (LXFL 529): > 100 µM (inactive)
GI50 (M14): > 100 µM (inactive)
GI50 (M19-MEL): > 100 µM (inactive)
GI50 (MOLT-4): 28.4 µM (inactive)
GI50 (Malme-3M): > 100 µM (inactive)
GI50 (NCI-H226): > 100 µM (inactive)
GI50 (NCI-H23): > 100 µM (inactive)
GI50 (NCI-H460): > 100 µM (inactive)
GI50 (NCI-H522): 25.5 µM (inactive)
GI50 (OVCAR-3): > 100 µM (inactive)
GI50 (OVCAR-4): > 100 µM (inactive)
GI50 (OVCAR-5): > 100 µM (inactive)
GI50 (OVCAR-8): > 100 µM (inactive)
GI50 (RPMI-8226): 51.2 µM (inactive)
GI50 (RXF 393): > 100 µM (inactive)
GI50 (SF-268): > 100 µM (inactive)
GI50 (SF-295): > 100 µM (inactive)
GI50 (SF-539): > 100 µM (inactive)
GI50 (SK-MEL-28): > 100 µM (inactive)
GI50 (SK-MEL-5): > 100 µM (inactive)
GI50 (SK-OV-3): > 100 µM (inactive)
GI50 (SN12C): > 100 µM (inactive)
GI50 (SNB-19): > 100 µM (inactive)
GI50 (SNB-75): > 100 µM (inactive)
GI50 (SNB-78): > 100 µM (inactive)
GI50 (SR): 53 µM (inactive)
GI50 (SW-620): > 100 µM (inactive)
GI50 (TK-10): > 100 µM (inactive)
GI50 (U-251): > 100 µM (inactive)
GI50 (UACC-257): > 100 µM (inactive)
GI50 (UACC-62): > 100 µM (inactive)
GI50 (UO-31): > 100 µM (inactive)
GI50 (XF498): 2.68 µM (inactive)

Cc1c2n(c3ccccc13)CC1CON(C)C21 (configuration not stated)
GI50 (786-0): > 100 µM (inactive)
GI50 (CAKI-1): > 100 µM (inactive)
GI50 (CCRF-CEM): > 100 µM (inactive)
GI50 (COLO 205): > 100 µM (inactive)
GI50 (DLD-1): > 100 µM (inactive)
GI50 (DMS-114): > 100 µM (inactive)
GI50 (DMS-273): > 100 µM (inactive)
GI50 (HCC 2998): > 100 µM (inactive)
GI50 (HCT-116): > 100 µM (inactive)
GI50 (HL-60): > 100 µM (inactive)
GI50 (HOP-62): > 100 µM (inactive)
GI50 (HOP-92): > 100 µM (inactive)
GI50 (IGROV-1): > 100 µM (inactive)
GI50 (K562): > 100 µM (inactive)
GI50 (LXFL 529): > 100 µM (inactive)
GI50 (M14): > 100 µM (inactive)
GI50 (M19-MEL): > 100 µM (inactive)
GI50 (MOLT-4): > 100 µM (inactive)
GI50 (Malme-3M): > 100 µM (inactive)
GI50 (NCI-H226): > 100 µM (inactive)
GI50 (NCI-H23): > 100 µM (inactive)
GI50 (NCI-H522): > 100 µM (inactive)
GI50 (OVCAR-4): > 100 µM (inactive)
GI50 (RPMI-8226): > 100 µM (inactive)
GI50 (RXF 631): > 100 µM (inactive)
GI50 (SF-268): > 100 µM (inactive)
GI50 (SF-539): > 100 µM (inactive)
GI50 (SK-MEL-28): > 100 µM (inactive)
GI50 (SK-MEL-2): > 100 µM (inactive)
GI50 (SK-OV-3): > 100 µM (inactive)
GI50 (SNB-75): > 100 µM (inactive)
GI50 (SNB-78): > 100 µM (inactive)
GI50 (SR): > 100 µM (inactive)
GI50 (UACC-62): > 100 µM (inactive)
GI50 (UO-31): > 100 µM (inactive)

COC(=O)C1=C(C)N(NC(=O)c2ccccc2)C(C)(O)C12CCOC2=O (configuration not stated)
GI50 (786-0): 0.195 µM (active)
GI50 (A498): > 100 µM (inactive)
GI50 (A549): > 100 µM (inactive)
GI50 (ACHN): > 100 µM (inactive)
GI50 (CAKI-1): > 100 µM (inactive)
GI50 (CCRF-CEM): > 100 µM (inactive)
GI50 (COLO 205): > 100 µM (inactive)
GI50 (DLD-1): > 100 µM (inactive)
GI50 (DMS-114): > 100 µM (inactive)
GI50 (DMS-273): > 100 µM (inactive)
GI50 (EKVX): > 100 µM (inactive)
GI50 (HCC 2998): > 100 µM (inactive)
GI50 (HCT-116): > 100 µM (inactive)
GI50 (HCT-15): > 100 µM
GI50 (HL-60): > 100 µM (inactive)
GI50 (HOP-18): > 100 µM (inactive)
GI50 (HOP-62): > 100 µM (inactive)
GI50 (HT-29): > 100 µM (inactive)
GI50 (IGROV-1): > 100 µM (inactive)
GI50 (K562): > 100 µM (inactive)
GI50 (KM-20L2): > 100 µM (inactive)
GI50 (KM12): > 100 µM (inactive)
GI50 (LOX IMVI): > 100 µM (inactive)
GI50 (LXFL 529): > 100 µM (inactive)
GI50 (M14): > 100 µM (inactive)
GI50 (MOLT-4): > 100 µM (inactive)
GI50 (Malme-3M): 0.0475 µM (active)
GI50 (NCI-H226): > 100 µM (inactive)
GI50 (NCI-H23): > 100 µM (inactive)
GI50 (NCI-H460): > 100 µM (inactive)
GI50 (NCI-H522): > 100 µM (inactive)
GI50 (OVCAR-3): > 100 µM (inactive)
GI50 (OVCAR-4): > 100 µM (inactive)
GI50 (OVCAR-5): > 100 µM (inactive)
GI50 (OVCAR-8): > 100 µM (inactive)
GI50 (RPMI-8226): > 100 µM (inactive)
GI50 (SF-268): > 100 µM (inactive)
GI50 (SF-295): > 100 µM (inactive)
GI50 (SF-539): > 100 µM (inactive)
GI50 (SK-MEL-28): > 100 µM (inactive)
GI50 (SK-MEL-2): 0.608 µM (active)
GI50 (SK-OV-3): > 100 µM (inactive)
GI50 (SN12C): > 100 µM (inactive)
GI50 (SNB-19): > 100 µM (inactive)
GI50 (SNB-78): > 100 µM (inactive)
GI50 (SW-620): > 100 µM (inactive)
GI50 (TK-10): > 100 µM (inactive)
GI50 (U-251): > 100 µM (inactive)
GI50 (UACC-257): > 100 µM (inactive)
GI50 (UACC-62): > 100 µM (inactive)
GI50 (UO-31): > 100 µM (inactive)
GI50 (XF498): > 100 µM (inactive)
